US7803903B2, “Protein-binding doxorubicin peptide derivatives” (priority 2003, dated 2010)

System: A375 melanoma xenografts
Experiment: tumor growth of subcutaneously growing A375 melanoma xenografts
Format: in vivo, nacked mice
Conditions: i.v.; doxorubicin 2×8 mg/kg on days 8 and 15; FIG. 5
Procedure: Animals: nacked mice; stock solution of doxorubicin (2 mg/ml); stock solution of 1:6 mg/ml in 10 mM sodium phosphate, 5% D-glucose (pH 6.4), control (buffer): glucose phosphate buffer (10 mM sodium phosphate, 5% D-glucose—pH 6.4) on days 8 and 15.

COc1cccc2c1C(=O)c1c(O)c3c(c(O)c1C2=O)C[C@@](O)(C(=O)CO)C[C@@H]3O[C@H]1C[C@H](N)[C@H](O)[C@H](C)O1 [Doxorubicin, doxorubicin]
relative tumor volume compared to treatment with the derivative according to the invention: approximately three times larger tumor volume
